Experimental data published in US20260207798A1, “CYCLIC PEPTIDES AS PET IMAGING AGENTS OF GRANZYME B” (priority 2022, published 2026).
Numbered stars: 1 amine (or outer) side, 2 acyl side, 3 side chain; on linkers, the order of the positions; unused ones are H or OH. Bridge positions count the residues as written; N and C are the ends. Square brackets hold non-standard residues; d marks the D form. Peptide text beside a SMILES is read from it. I, II: the chains in the order shown. * marks the point of attachment. CO(CH2)2(OCH2CH2)17CO = O=C(CCOCCOCCOCCOCCOCCOCCOCCOCCOCCOCCOCCOCCOCCOCCOCCOCCOCCC(=O)[*:2])[*:1]; X5 = O=C(CCOCCOCCOCCOCCOCCOCCOCCOCCOCCOCCOCCC(=O)[*:2])[*:1]; Pro(trans-4-F) = O=C(O)[C@@H]1C[C@@H](F)CN1; Pro(cis-4-F) = O=C(O)[C@@H]1C[C@H](F)CN1; Pro(4R-Me) = C[C@H]1CN[C@H](C(=O)O)C1; Tic = O=C(O)[C@@H]1Cc2ccccc2CN1; Aib = CC(C)(N)C(=O)O; Propionyl = CCC(=O)*

biological target: human Granzyme B (hGranzyme B) (Homo sapiens, UniProt P10144); assay: Surface plasmon resonance (SPR) binding kinetics to hGranzyme B; settings: 25° C., 1:1 binding model, KD=kd/ka; read-out: Granzyme B SPR Kd
Method: The kinetics of test peptide binding to human Granzyme B (hGranzyme B) was determined by SPR. All experiments were performed at 25° C. using the Biacore 8k+ instrument (Cytiva, Marlborough, MA). The Biacore 8k+ Insight Evaluation Software Version 3.0 was used to fit the data with a 1:1 binding model to determine the association rate constant ka (M^−1s^−1, where “M” ~equals molar and “s” ~equals seconds) and the dissociation rate constant kd (s^−1). These rate constants were used to calculate the equilibrium dissociation constant. KD (M)=kd/ka.
To measure the binding kinetics of peptides of interest, surfaces were prepared by a capture method to a Series S Streptavidin (SA) chip using a 1×HBS-EP+ running buffer (Cytiva). hGranzyme B was diluted to 10 μg/mL in IX HBS-EP+ and flowed over spot 2 of each flow cell on the chip at a flow rate of 10 ul/min for 20 s to achieve a level of capture of ~1100 RU. An unmodified spot 1 of each flow cell was used as a matrix binding control or reference surface. Binding kinetics were measured using single cycle kinetics at 25° C. by injecting 5 concentrations with 3-fold serial dilutions of test peptides from 0.01 μM to 1 μM. Compound dilutions were performed manually in a running buffer containing 1×HBS-EP+(Cytiva), and a final concentration of 2% DMSO. The interaction analyses over hGranzyme B, were performed using a 120 s association time and a 900 s dissociation time. All experiments were conducted at a flow rate of 50 μL/min with a data collection rate of 10 Hz.
Peptide dilution series included 2 zero concentration points (no compound) which were averaged and subtracted from the peptide concentration injection as DMSO control responses. Binding data acquired from the reference surface (matrix binding control) were subtracted from the binding data for hGranzyme B surface on the chip to determine specific binding. Next, the association phase data were solvent corrected to account for any signal fluctuation throughout the experiment due to subtle DMSO concentration differences. Corrected response data were analyzed using the Biacore 8k+ Evaluation Software Version 3.0 according to the manufacturer. SPR data for representative compounds of the disclosure are found in Table 8.

Kd [nM]	SMILES
5.1	CCC(=O)NCCCC[C@H](NC(=O)CNC(=O)CNC(=O)[C@@H]1CSCC(=O)N[C@@H](Cc2ccccc2)C(=O)N[C@@H](CC(N)=O)C(=O)N[C@@H](Cc2ccccc2)C(=O)N[C@@H](CCC(=O)O)C(=O)N[C@@H](CC(=O)O)C(=O)N[C@@H](CCC(N)=O)C(=O)N[C@@H](CO)C(=O)N2C[C@H](F)C[C@H]2C(=O)N[C@@H](CC(=O)O)C(=O)N[C@@H]([C@@H](C)O)C(=O)N[C@@H](Cc2c[nH]c3ccccc23)C(=O)N[C@@H](CCC(N)=O)C(=O)N2CCC[C@H]2C(=O)N1)C(N)=O [Compound 14a, *F.N.F.E.D.Q.S.Prot4F.D.T.W.Q.P.*C.G.G.K(Prop).NH2] ({CH2CO}-FNFEDQS[Pro(trans-4-F)]DTWQPCGGK(Propionyl)-NH2; thioether N-14)
3.7	CCC(=O)NCCCC[C@H](NC(=O)CNC(=O)CNC(=O)[C@@H]1CSCC(=O)N[C@@H](Cc2ccccc2)C(=O)N[C@@H](CC(N)=O)C(=O)N[C@@H](Cc2ccccc2)C(=O)N[C@@H](CCC(=O)O)C(=O)N[C@@H](CC(=O)O)C(=O)N[C@@H](CCC(N)=O)C(=O)N[C@@H](CO)C(=O)N2CCC[C@H]2C(=O)N[C@@H](CC(=O)O)C(=O)N[C@@H]([C@@H](C)O)C(=O)N[C@@H](Cc2c[nH]c3ccccc23)C(=O)N[C@@H](CCC(N)=O)C(=O)N2CCC[C@H]2C(=O)N1)C(N)=O [Compound 15a, *F.N.F.E.D.Q.S.P.D.T.W.Q.P.*C.G.G.K(Prop).NH2] ({CH2CO}-FNFEDQSPDTWQPCGGK(Propionyl)-NH2; thioether N-14)
< 0.3	C[C@@H]1NC(=O)[C@H](CO)NC(=O)[C@H](CCC(N)=O)NC(=O)[C@H](CC(=O)O)NC(=O)[C@H](CCC(=O)O)NC(=O)[C@H](Cc2ccccc2)NC(=O)[C@H](CC(N)=O)NC(=O)[C@H](Cc2ccccc2)NC(=O)CSC[C@@H](C(=O)NCC(=O)NCC(=O)N[C@@H](CCCCNC(=O)CCOCCOCCOCCOCCOCCOCCOCCOCCOCCOCCOCCC(=O)NCCCC[C@H](NC(=O)CNC(=O)CNC(=O)[C@@H]2CSCC(=O)N[C@@H](Cc3ccccc3)C(=O)N[C@@H](CC(N)=O)C(=O)N[C@@H](Cc3ccccc3)C(=O)N[C@@H](CCC(=O)O)C(=O)N[C@@H](CC(=O)O)C(=O)N[C@@H](CCC(N)=O)C(=O)N[C@@H](CO)C(=O)N[C@@H](C)C(=O)N[C@@H](CC(=O)O)C(=O)N[C@@H]([C@@H](C)O)C(=O)N[C@@H](Cc3c[nH]c4ccccc34)C(=O)N[C@@H](CCC(N)=O)C(=O)N3CCC[C@H]3C(=O)N2)C(N)=O)C(N)=O)NC(=O)[C@@H]2CCCN2C(=O)[C@H](CCC(N)=O)NC(=O)[C@H](Cc2c[nH]c3ccccc23)NC(=O)[C@H]([C@@H](C)O)NC(=O)[C@H](CC(=O)O)NC1=O [Compound 17a, (*F.N.F.E.D.Q.S.A.D.T.W.Q.P.*C.G.G.K.NH2)-PEG11-(*F.N.F.E.D.Q.S.A.D.T.W.Q.P.*C.G.G.K.NH2)] (I: {CH2CO}-FNFEDQSADTWQPCGGK-NH2 / II: {CH2CO}-FNFEDQSADTWQPCGGK-NH2; linker I:17-II:17 via X5 (inferred); thioether I:N-I:14, II:N-II:14 (inferred))
< 0.3	C[C@@H]1NC(=O)[C@H](CO)NC(=O)[C@H](CCC(N)=O)NC(=O)[C@H](CC(=O)O)NC(=O)[C@H](CCC(=O)O)NC(=O)[C@H](Cc2ccccc2)NC(=O)[C@H](CC(N)=O)NC(=O)[C@H](Cc2ccccc2)NC(=O)CSC[C@@H](C(=O)NCC(=O)NCC(=O)N[C@@H](CCCCNC(=O)CCOCCOCCOCCOCCOCCOCCOCCOCCOCCOCCOCCOCCOCCOCCOCCOCCOCCC(=O)NCCCC[C@H](NC(=O)CNC(=O)CNC(=O)[C@@H]2CSCC(=O)N[C@@H](Cc3ccccc3)C(=O)N[C@@H](CC(N)=O)C(=O)N[C@@H](Cc3ccccc3)C(=O)N[C@@H](CCC(=O)O)C(=O)N[C@@H](CC(=O)O)C(=O)N[C@@H](CCC(N)=O)C(=O)N[C@@H](CO)C(=O)N[C@@H](C)C(=O)N[C@@H](CC(=O)O)C(=O)N[C@@H]([C@@H](C)O)C(=O)N[C@@H](Cc3c[nH]c4ccccc34)C(=O)N[C@@H](CCC(N)=O)C(=O)N3CCC[C@H]3C(=O)N2)C(N)=O)C(N)=O)NC(=O)[C@@H]2CCCN2C(=O)[C@H](CCC(N)=O)NC(=O)[C@H](Cc2c[nH]c3ccccc23)NC(=O)[C@H]([C@@H](C)O)NC(=O)[C@H](CC(=O)O)NC1=O [Compound 18a, (*F.N.F.E.D.Q.S.A.D.T.W.Q.P.*C.G.G.K.NH2)-PEG17-(F.N.F.E.D.Q.S.A.D.T.W.Q.P.C.G.G.K.NH2)] (I: {CH2CO}-FNFEDQSADTWQPCGGK-NH2 / II: {CH2CO}-FNFEDQSADTWQPCGGK-NH2; linker I:17-II:17 via CO(CH2)2(OCH2CH2)17CO (inferred); thioether I:N-I:14, II:N-II:14 (inferred))
3.7	C[C@@H](O)[C@@H]1NC(=O)CNC(=O)C(C)(C)NC(=O)[C@H](CO)NC(=O)[C@H](CCC(N)=O)NC(=O)[C@H](CC(=O)O)NC(=O)[C@H](CCC(=O)O)NC(=O)[C@H](Cc2ccccc2)NC(=O)[C@H](CC(N)=O)NC(=O)[C@H](Cc2ccccc2)NC(=O)CSC[C@@H](C(=O)NCC(N)=O)NC(=O)[C@@H]2CCCN2C(=O)[C@H](CCC(N)=O)NC(=O)[C@H](Cc2c[nH]c3ccccc23)NC1=O [Compound 45a, *F.N.F.E.D.Q.S.Aib.G.T.W.Q.P.*C.G.NH2] ({CH2CO}-FNFEDQS[Aib]GTWQPCG-NH2; thioether N-14)
4.2	C[C@@H](O)[C@@H]1NC(=O)[C@H](CC(=O)O)NC(=O)[C@@H]2CCCN2C(=O)[C@H](CO)NC(=O)[C@H](CCC(N)=O)NC(=O)[C@H](CC(=O)O)NC(=O)[C@H](CCC(=O)O)NC(=O)[C@H](Cc2ccccc2)NC(=O)[C@H](CC(N)=O)NC(=O)[C@H](Cc2ccccc2)NC(=O)CSC[C@@H](C(=O)NCC(N)=O)NC(=O)[C@@H]2C[C@H](F)CN2C(=O)[C@H](CCC(N)=O)NC(=O)[C@H](Cc2c[nH]c3ccccc23)NC1=O [Compound 48a, *F.N.F.E.D.Q.S.P.D.T.W.Q.Proc4F.*C.G.NH2] ({CH2CO}-FNFEDQSPDTWQ[Pro(cis-4-F)]CG-NH2; thioether N-14)
4.8	C[C@@H](O)[C@@H]1NC(=O)[C@H](CC(=O)O)NC(=O)[C@@H]2CCCN2C(=O)[C@H](CO)NC(=O)[C@H](CCC(N)=O)NC(=O)[C@H](CC(=O)O)NC(=O)[C@H](CCC(=O)O)NC(=O)[C@H](Cc2ccccc2)NC(=O)[C@H](CC(N)=O)NC(=O)[C@H](Cc2ccccc2)NC(=O)CSC[C@@H](C(=O)NCC(=O)NCC(=O)N[C@@H](CCCCN)C(N)=O)NC(=O)[C@@H]2CCCN2C(=O)[C@H](CCC(N)=O)NC(=O)[C@H](Cc2c[nH]c3ccccc23)NC1=O [Compound 51a, *F.N.F.E.D.Q.S.P.D.T.W.Q.P.*C.G.G.K.NH2] ({CH2CO}-FNFEDQSPDTWQPCGGK-NH2; thioether N-14)
4.8	CC(C)C[C@@H]1NC(=O)[C@@H]2CCCN2C(=O)[C@H](CO)NC(=O)[C@H](CCC(N)=O)NC(=O)[C@H](CC(=O)O)NC(=O)[C@H](CCC(=O)O)NC(=O)[C@H](Cc2ccccc2)NC(=O)[C@H](CC(N)=O)NC(=O)[C@H](Cc2ccccc2)NC(=O)CSC[C@@H](C(=O)NCC(N)=O)NC(=O)[C@@H]2CCCN2C(=O)[C@H](CCC(N)=O)NC(=O)[C@H](Cc2c[nH]c3ccccc23)NC(=O)[C@H]([C@@H](C)O)NC1=O [Compound 52a, *F.N.F.E.D.Q.S.P.L.T.W.Q.P.*C.G.NH2] ({CH2CO}-FNFEDQSPLTWQPCG-NH2; thioether N-14)
4.9	C[C@@H](O)[C@@H]1NC(=O)[C@H](CC(=O)O)NC(=O)[C@@H]2CCCN2C(=O)[C@H](CO)NC(=O)[C@H](CCC(N)=O)NC(=O)[C@H](CC(=O)O)NC(=O)[C@H](CCC(=O)O)NC(=O)[C@H](Cc2ccccc2)NC(=O)[C@H](CC(N)=O)NC(=O)[C@H](Cc2ccccc2)NC(=O)CSC[C@@H](C(=O)NCC(N)=O)NC(=O)[C@@H]2Cc3ccccc3CN2C(=O)[C@H](CCC(N)=O)NC(=O)[C@H](Cc2c[nH]c3ccccc23)NC1=O [Compound 53a, *F.N.F.E.D.Q.S.P.D.T.W.Q.Tic.*C.G.NH2] ({CH2CO}-FNFEDQSPDTWQ[Tic]CG-NH2; thioether N-14)
5.1	C[C@@H]1C[C@H]2C(=O)N[C@H](C(=O)NCC(N)=O)CSCC(=O)N[C@@H](Cc3ccccc3)C(=O)N[C@@H](CC(N)=O)C(=O)N[C@@H](Cc3ccccc3)C(=O)N[C@@H](CCC(=O)O)C(=O)N[C@@H](CC(=O)O)C(=O)N[C@@H](CCC(N)=O)C(=O)N[C@@H](CO)C(=O)N3CCC[C@H]3C(=O)N[C@@H](CC(=O)O)C(=O)N[C@@H]([C@@H](C)O)C(=O)N[C@@H](Cc3c[nH]c4ccccc34)C(=O)N[C@@H](CCC(N)=O)C(=O)N2C1 [Compound 55a, *F.N.F.E.D.Q.S.P.D.T.W.Q.Prot4Me.*C.G.NH2] ({CH2CO}-FNFEDQSPDTWQ[Pro(4R-Me)]CG-NH2; thioether N-14)
